The values below come from article PMC10120312 (Cell Insight, 2022).

As usually defined, the EC50 is the concentration needed to bring the measured effect to its halfway point.

For assay [1], the system named is EV-A71. In words: Viral binding assay. It is filed as cell-based. The settings on record: qRT-PCR; PTC-209HBr 3.2 μM, enviroxime 0.32 μM, pirodavir 0.64 μM; MOI 30.
The subject of assay [2] is EV-A71. As to the kind of experiment: CPE assay against EV-A71 in RD cells. It is filed as cell-based, Enterovirus 71 (EV-A71). The settings on record: Enterovirus A, EVA71, RD, read-out: EC50 against EV-A71.
For assay [3], the system named is EV-A71. As to the kind of experiment: Viral entry assay. Format: cell-based. As to conditions: qRT-PCR; PTC-209HBr 3.2 μM, enviroxime 0.32 μM, pirodavir 0.64 μM; MOI 30. In general terms: Real-time PCR tracks product formation cycle by cycle.
Assay [4] concerns the target VP1 and hSCARB2 (Human enterovirus 71, UniProt Q66478). As to the kind of experiment: IF assay of colocalization between VP1 and hSCARB2. It is filed as cell-based. As to conditions: RD cells, vs untreated cells.
For assay [5], the target named is EV-A71 VP1 (Human enterovirus 71, UniProt Q66478). Format: binding. As to conditions: MST, 500 nM VP1-EGFP.
Chain of EV-A71 VP1 (Q66478 566-862): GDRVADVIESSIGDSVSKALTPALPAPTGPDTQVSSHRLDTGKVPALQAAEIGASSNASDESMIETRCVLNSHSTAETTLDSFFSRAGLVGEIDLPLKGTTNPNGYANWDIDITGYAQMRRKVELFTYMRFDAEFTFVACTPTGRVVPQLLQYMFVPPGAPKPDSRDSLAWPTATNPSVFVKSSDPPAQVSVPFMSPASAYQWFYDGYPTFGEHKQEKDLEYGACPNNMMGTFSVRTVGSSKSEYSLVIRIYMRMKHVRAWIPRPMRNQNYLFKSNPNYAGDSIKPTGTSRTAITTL

Chain of VP1 and hSCARB2 (Q66478 324-565): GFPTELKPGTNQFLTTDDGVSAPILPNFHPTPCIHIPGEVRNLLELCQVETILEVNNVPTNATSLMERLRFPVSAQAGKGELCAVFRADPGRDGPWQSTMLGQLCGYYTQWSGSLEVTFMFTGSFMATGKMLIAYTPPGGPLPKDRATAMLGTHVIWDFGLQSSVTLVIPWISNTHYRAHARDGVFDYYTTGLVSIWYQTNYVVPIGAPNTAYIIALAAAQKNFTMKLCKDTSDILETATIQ
Chain of VP1 and hSCARB2 (Q66478 566-862): as the sequence (Q66478 566-862) above
Chain of VP1 and hSCARB2 (Q66478 70-323): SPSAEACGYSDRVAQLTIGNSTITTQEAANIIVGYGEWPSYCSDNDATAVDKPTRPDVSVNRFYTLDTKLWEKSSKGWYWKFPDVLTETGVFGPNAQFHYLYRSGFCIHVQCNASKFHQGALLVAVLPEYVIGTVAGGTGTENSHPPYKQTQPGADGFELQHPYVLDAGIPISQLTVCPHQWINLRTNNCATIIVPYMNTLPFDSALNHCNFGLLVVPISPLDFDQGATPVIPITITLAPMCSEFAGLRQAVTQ
Chain of VP1 and hSCARB2 (Q66478 2-69): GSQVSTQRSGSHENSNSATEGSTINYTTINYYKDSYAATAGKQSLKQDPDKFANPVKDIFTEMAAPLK

Consider `CCOC(=O)c1ccc(OCCC2CCN(c3ccc(C)nn3)CC2)cc1` [Pirodavir, pirodavir], for which, in assay [1], the “Inhibition of EV-A71 binding (RNA level)” value is recorded as “dramatically inhibit”. The EC50 in assay [2] was 5.25 µM. In assay [3], the “Inhibition of EV-A71 entry (RNA level)” value is given as “but not entry”.

Take `CC(C)S(=O)(=O)n1c(N)nc2ccc(/C(=N/O)c3ccccc3)cc21` [Enviroxime, enviroxime]: the “Colocalization between VP1 and hSCARB2 in EV-A71-infected cells” value in assay [4] is given as “decreased”. The “Kd VP1” value in assay [5] is listed as “low binding affinity”. Further, the “Inhibition of EV-A71 binding (RNA level)” value in assay [1] was “little inhibited”. Also, the EC50 in assay [2] turned out to be 0.178 µM. Moreover, in assay [3], the “Inhibition of EV-A71 entry (RNA level)” value is recorded as “little inhibited”.
